Test results published in US10653655B2, “Composition for preventing or improving peripheral neuropathy” (AJINOMOTO CO., INC., priority 2014, dated 2020).

Assays:
[1] = tested on: rat having hypersensitive pain induced by anticancer agent (Oxaliplatin); assay: Von Frey test in rat having hypersensitive pain induced by anticancer agent (Experimental Example 1); assay type: in vivo; conditions: SD rat, Oxaliplatin 5 mg/kg i.p. 5 days; oral once per day 28 days; L-serine 10.5 mg/kg, EPA 300 mg/kg equivalent; 22 and 28 days; stimulation intensity 4 g, 8 g, 15 g
Procedure: 6-Week-old male SD rats were divided into 5 groups (1A group-1E group, N=6) based on the body weight, an anticancer agent (Oxaliplatin 5 mg/body weight kg) was intraperitoneally administered to 4 groups other than 1A group for 5 days, and saline was intraperitoneally administered to 1A group for 5 days. In addition, the following evaluation liquid was orally ingested once per day in the time zone of 4 to 5 hours after start of the light period for 28 days simultaneously from the start of the intraperitoneal administration. As eicosapentaenoic acid administered to 1D group, 1E group, fish oil corresponding to 300 mg/body weight kg (equivalent to 429 mg/body weight kg as n-3 fatty acid) was used. Evaluation Liquids for 1A Group-1E Group: • 1A group: distilled water • 1B group: distilled water • 1C group: L-serine 10.5 mg/body weight kg • 1D group: eicosapentaenoic acid 300 mg/body weight kg equivalent • 1E group: L-serine 10.5 mg/body weight kg+eicosapentaenoic acid 300 mg/body weight kg equivalent Von Frey test was performed at 22 days and 28 days after the start of the anticancer agent administration. […] The ratio (%) of the number of pain response relative to the number (10 times) of filament pressing was calculated at each stimulation intensity.

[2] = tested on: rat having hypersensitive pain induced by gonitis inducing agent (Zymosan); assay: Von Frey test in rat having hypersensitive pain induced by gonitis inducing agent (Zymosan) (Experimental Example 2); assay type: in vivo; conditions: SD rat, Zymosan 2 mg right knee; oral once per day; L-serine 10.5 mg/kg, EPA 300 mg/kg equivalent; 7 and 14 days; right and left foot; 4 g, 8 g, 15 g
Procedure: (§1) 8-Week-old male SD rats were divided into 5 groups (2A group-2E group, N=7) based on the body weight, and 2 mg of a gonitis inducing agent (Zymosan) was administered to the right knee cartilage part in 4 groups other than 2A group. In addition, the following evaluation liquid was orally ingested once per day in the time zone of 4 to 5 hours after start of the light period for 21 days from the administration of the gonitis inducing agent to the right knee. As eicosapentaenoic acid administered to 2D group, 2E group, fish oil corresponding to 300 mg/body weight kg (equivalent to 429 mg/body weight kg as n-3 fatty acid) was used.
(§2) Evaluation Liquids for 2A Group-2E Group: • 2A group: distilled water • 2B group: distilled water • 2C group: L-serine 10.5 mg/body weight kg • 2D group: eicosapentaenoic acid 300 mg/body weight kg equivalent • 2E group: L-serine 10.5 mg/body weight kg+eicosapentaenoic acid 300 mg/body weight kg equivalent
Von Frey test was performed at 7 days and 14 days after the gonitis inducing agent administration. […] The ratio (%) of the number of pain response relative to the number (5 times) of filament pressing was calculated at each stimulation intensity.

[3] = tested on: rat having hypersensitive pain induced by gonitis inducing agent (Zymosan); assay: Gastrocnemius weight of right and left foot in Zymosan gonitis rat (Experimental Example 2); assay type: in vivo; conditions: 21 days after Zymosan, rank among 2C-2E groups
Procedure: as §1, §2
After the completion of ingestion of the evaluation liquid (21 days after gonitis inducing agent administration), rats were fasted for 17 hours, and the body weight, gastrocnemius weight of the right foot and the left foot, liver weight and weight of fat around epididymis of each group were measured.

[4] = tested on: peripheral neuropathic pain in an animal model of anticancer agent or diabetes; conditions: at the maximum concentration of L-serine; WO 2011/111355; cited from earlier work

Structure (SMILES): N[C@@H](CO)C(=O)O [L-serine]
- number of pain response (Von Frey test) as compared to 1B group [1]: slightly decreased
- number of pain response (Von Frey test) as compared to 2B group [2]: slightly decreased
- gastrocnemius weight of the right foot, comparison in 2C group to 2E group ([3]; after 17 h fasting): lowest
- difference in the gastrocnemius weight of both feet, comparison among 2C group to 2E group [3]: largest
- relieving effect on peripheral neuropathic pain due to anticancer agents and diabetes [4]: partial
